How the values were obtained:
human CGRP = human CGRP (Homo sapiens, UniProt O60894+Q16602); details: cited from earlier work
[1] = female, beagle, dog, in vivo, 50 mg
[2] = Study BHV3500-107 Cohort 1: zavegepant 50 mg SoftGel QD PK (fasted Days 1-10, fed Days 11-14); assay type: in vivo, humans; details: for Concentration: Cohort 1, 50 mg QD SoftGel, pre-dose
[3] = PK exposure from 10 mg intranasal (IN) zavegepant; assay type: in vivo, human; details: 10 mg IN
in vivo = details: female, beagle, dog, 50 mg; for AUC(0-t): AUC0-4 hr
[4] = Study BHV3500-103 Treatment B: PK after 50 mg x 1 SoftGel orally; assay type: in vivo, humans; details: Study 103, 50 mg SoftGel x 1 oral; for AUC(0-t) / AUC(0-inf) / Cmax / Tmax: human, in vivo, po, 50 mg
Experimental: Single-dose: Study BHV3500-103, PK data after 50 mg×1 (2×25 mg) SoftGel administered orally (Treatment B)

[5] = Phase 2/3 dose-ranging clinical trial of intranasal BHV-3500; assay type: in vivo, human; details: intranasal unit doses 5, 10 and 20 mg; treatment of migraine
[6] = FAO/WHO report; cited from earlier work
[7] = Cohort 1, Day 10, 50 mg QD SoftGel oral, fasted, multiple dose, Max
[8] = Cohort 1, Day 10, 50 mg QD SoftGel oral, fasted, multiple dose, Min
[9] = Day 14 (with food, moderate fat meal) vs. Day 10 (fasted), 50 mg QD SoftGel
[10] = Study 107, Cohort 1, Day 1, 50 mg SoftGel single dose, fasted

Sequence of human CGRP (Q16602 23-461): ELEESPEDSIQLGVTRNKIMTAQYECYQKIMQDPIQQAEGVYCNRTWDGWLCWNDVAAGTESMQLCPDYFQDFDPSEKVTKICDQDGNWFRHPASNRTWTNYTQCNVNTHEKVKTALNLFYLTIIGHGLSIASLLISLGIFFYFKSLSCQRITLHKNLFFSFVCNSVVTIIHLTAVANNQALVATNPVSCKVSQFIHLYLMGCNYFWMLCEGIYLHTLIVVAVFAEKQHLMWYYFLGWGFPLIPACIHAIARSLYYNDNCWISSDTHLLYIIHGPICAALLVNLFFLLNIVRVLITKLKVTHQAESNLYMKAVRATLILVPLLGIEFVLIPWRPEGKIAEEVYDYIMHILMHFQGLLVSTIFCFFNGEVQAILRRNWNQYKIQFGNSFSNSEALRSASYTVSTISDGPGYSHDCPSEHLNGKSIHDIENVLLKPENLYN
Sequence of human CGRP (O60894 27-148): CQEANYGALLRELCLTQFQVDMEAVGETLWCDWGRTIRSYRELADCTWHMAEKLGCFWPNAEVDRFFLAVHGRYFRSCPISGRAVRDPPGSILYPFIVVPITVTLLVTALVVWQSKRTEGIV

For `Cc1cc(C[C@@H](NC(=O)N2CCC(c3cc4ccccc4[nH]c3=O)CC2)C(=O)N2CCN(C3CCN(C)CC3)CC2)cc2cn[nH]c12` [BHV-3500, (R)-N-(3-(7-methyl-1H-indazol-5-yl)-1-(4-(1-methylpiperidin-4-yl)piperazin-1-yl)-1-oxopropan-2-yl)-4-(2-oxo-1,2-dihydroquinolin-3-yl)piperidine-1-carboxamide], the Ki (human CGRP) is given as 0.023 nM, the “AUC0-4 hr, Median/Average” value [1] is given as 44.4 ng·h/mL and the “Cmax, Median/Average” value [1] is given as 31.7 ng/mL. For the same compound, the “Tmax, Median/Average” value [1] was 30 min, the “t1/2, Median/Average” value [1] was 42.6 min and the “Pre-dose (C0) concentrations” value ([2]; 50 mg QD SoftGel, Days 1-14) was “largely below the LLOQ”. For the same compound, the Concentration ([2]; Day 6, fasting, Mean) was 0.0936 ng/mL, the Concentration ([2]; Day 10, fasting, Max) was 8.5 ng/mL and the Concentration ([2]; Day 10, fasting, Mean) was 0.0582 ng/mL. The Concentration ([2]; Day 12, moderate fat meal, Mean) was 0.0764 ng/mL, the Concentration ([2]; Day 12, moderate fat meal, Min) was 0 ng/mL and the Concentration ([2]; Day 14, moderate fat meal, Mean) was 0 ng/mL. It also gave a Concentration ([2]; Day 14, moderate fat meal, Min) of 0 ng/mL, a Cmax ([2]; Cohort 1, Day 1, 50 mg SoftGel oral, fasted, single dose, Max) of 13.8 ng/mL and a Residual area ([2]; Cohort 1, Day 1, 50 mg SoftGel oral, fasted, single dose, Median) of 8.9%. For the same compound, the Cmax ([2]; Cohort 1, Day 1, 50 mg SoftGel oral, fasted, single dose, Min) was 1.42 ng/mL, the Cmax [2, 7] was 46.1 ng/mL and the Tmax [2, 7] was 5 h. For the same compound, the Tmax ([2]; Cohort 1, Day 10, 50 mg QD SoftGel oral, fasted, multiple dose, Mean, listed as Zavegepant) was 2.59 h, the Cmax [2, 8] was 2.27 ng/mL and the Tmax [2, 8] was 1.5 h. For the same compound, the Cmax ([2]; Cohort 1, Day 14, 50 mg QD SoftGel oral, fed (moderate fat meal), multiple dose, Max) was 3.02 ng/mL, the Tmax ([2]; Cohort 1, Day 14, 50 mg QD SoftGel oral, fed (moderate fat meal), multiple dose, Min) was 2.5 h and the “decrease in extent of absorption (AUC) with food” value [2, 9] was roughly 65%. The “decrease in rate of absorption (Cmax) with food” value [2, 9] was roughly 72%, the Tmax ([2]; Day 14, fed (moderate fat meal), multiple dose, 50 mg QD SoftGel, statistic not stated, listed as zavegepant) was 3.6 h and the “AUC0-24, Max” value [2, 10] was 46.3 ng·h/mL. For the same compound, the “AUC0-24, Mean” value [2, 10] was 19.1 ng·h/mL, the “AUC0-24, Min” value [2, 10] was 4.66 ng·h/mL and the “AUCINF_obs, Max” value [2, 10] was 47.8 ng·h/mL. For the same compound, the “AUCINF_obs, Mean” value [2, 10] was 22.6 ng·h/mL, the “AUCINF_obs, Min” value [2, 10] was 9.54 ng·h/mL and the “Cmax, Max” value [2, 10] was 13.8 ng/mL. The “Cmax, Min” value [2, 10] was 1.42 ng/mL, the “HL_Lambda_z, Geometric Mean” value [2, 10] was 2.48 h and the “HL_Lambda_z, Max” value [2, 10] was 5.07 h. The “HL_Lambda_z, Mean” value [2, 10] was 2.66 h, the “HL_Lambda_z, Median” value [2, 10] was 2.19 h and the “HL_Lambda_z, Min” value [2, 10] was 1.62 h. The “Tmax, Max” value [2, 10] was 5.00 h, the “steady state achieved by” value ([2]; concentrations at 8 hours post-dose, multiple dosing 50 mg QD, fasted state) was no more than 3 days and the Cmax ([2]; human, in vivo, oral, 50 mg, Day 10, steady state, fasting, 50 mg QD SoftGel, statistic not stated, range 2.3 to 46.1, read-out: Cmax) was 5.7 ng/mL. The AUC(0-t) ([2]; human, in vivo, oral, 50 mg, Day 10, steady state, fasting, 50 mg QD SoftGel, statistic not stated, range 6.7 to 75.4, read-out: AUC0-24) was 20.4 ng·h/mL, the Tmax ([2]; human, in vivo, oral, 50 mg, Day 10, steady state, fasting, 50 mg QD SoftGel, statistic not stated, read-out: Tmax) was 2 h and the Tmax ([2]; human, in vivo, oral, 50 mg, Day 14, fed (moderate fat meal), multiple dose, 50 mg QD SoftGel, statistic not stated, read-out: Tmax) was 4 h. The Cmax ([2]; human, in vivo, oral, 50 mg, Day 14, fed (moderate fat meal), 50 mg QD SoftGel, statistic not stated, range 1.0 to 3.0, read-out: Cmax) was 1.6 ng/mL, the AUC(0-t) ([2]; human, in vivo, oral, 50 mg, Day 14, fed (moderate fat meal), 50 mg QD SoftGel, statistic not stated, range 3.7 to 16.6, read-out: AUC0-24) was 7.3 ng·h/mL and the AUC(0-t) ([2]; human, in vivo, oral, 50 mg, Study 107, Cohort 1, Day 1, 50 mg SoftGel single dose, fasted, read-out: AUC0-24, Geometric Mean) was 15.8 ng·h/mL. It also gave an AUC(0-t) ([2]; human, in vivo, oral, 50 mg, Study 107, Cohort 1, Day 1, 50 mg SoftGel single dose, fasted, read-out: AUC0-24, Median) of 16.7 ng·h/mL, an AUC(0-inf) ([2]; human, in vivo, oral, 50 mg, Study 107, Cohort 1, Day 1, 50 mg SoftGel single dose, fasted, read-out: AUCINF_obs, Geometric Mean) of 20 ng·h/mL and an AUC(0-inf) ([2]; human, in vivo, oral, 50 mg, Study 107, Cohort 1, Day 1, 50 mg SoftGel single dose, fasted, read-out: AUCINF_obs, Median) of 20.6 ng·h/mL. It also gave a Cmax ([2]; human, in vivo, oral, 50 mg, Study 107, Cohort 1, Day 1, 50 mg SoftGel single dose, fasted, read-out: Cmax, Geometric Mean) of 5.3 ng/mL, a Cmax ([2]; human, in vivo, oral, 50 mg, Study 107, Cohort 1, Day 1, 50 mg SoftGel single dose, fasted, read-out: Cmax, Mean) of 6.32 ng/mL and a Cmax ([2]; human, in vivo, oral, 50 mg, Study 107, Cohort 1, Day 1, 50 mg SoftGel single dose, fasted, read-out: Cmax, Median) of 5.73 ng/mL. For the same compound, the Tmax ([2]; human, in vivo, oral, 50 mg, Study 107, Cohort 1, Day 1, 50 mg SoftGel single dose, fasted, read-out: Tmax, Geometric Mean) was 2.18 h, the Tmax ([2]; human, in vivo, oral, 50 mg, Study 107, Cohort 1, Day 1, 50 mg SoftGel single dose, fasted, read-out: Tmax, Mean) was 2.42 h and the Tmax ([2]; human, in vivo, oral, 50 mg, Study 107, Cohort 1, Day 1, 50 mg SoftGel single dose, fasted, read-out: Tmax, Median) was 2.25 h. For the same compound, the Tmax ([2]; human, in vivo, po, 50 mg, Cohort 1, Day 1, 50 mg SoftGel oral, fasted, single dose, Geometric Mean, read-out: Tmax) was 2.18 h, the Cmax ([2]; human, in vivo, po, 50 mg, Cohort 1, Day 1, 50 mg SoftGel oral, fasted, single dose, Mean, read-out: Cmax) was 6.32 ng/mL and the Tmax ([2]; human, in vivo, po, 50 mg, Cohort 1, Day 1, 50 mg SoftGel oral, fasted, single dose, Mean, read-out: Tmax) was 2.42 h. For the same compound, the Cmax ([2]; human, in vivo, po, 50 mg, Cohort 1, Day 1, 50 mg SoftGel oral, fasted, single dose, Median, read-out: Cmax) was 6.78 ng/mL, the Tmax ([2]; human, in vivo, po, 50 mg, Cohort 1, Day 1, 50 mg SoftGel oral, fasted, single dose, Median, read-out: Tmax) was 2.25 h and the Tmax ([2]; human, in vivo, po, 50 mg, Cohort 1, Day 10, 50 mg QD SoftGel oral, fasted, multiple dose, Geometric Mean, read-out: Tmax) was 2.35 h. For the same compound, the Cmax ([2]; human, in vivo, po, 50 mg, Cohort 1, Day 10, 50 mg QD SoftGel oral, fasted, multiple dose, Mean, read-out: Cmax) was 9.71 ng/mL, the Tmax ([2]; human, in vivo, po, 50 mg, Cohort 1, Day 10, 50 mg QD SoftGel oral, fasted, multiple dose, Mean, read-out: Tmax) was 2.69 h and the Cmax ([2]; human, in vivo, po, 50 mg, Cohort 1, Day 10, 50 mg QD SoftGel oral, fasted, multiple dose, Median, read-out: Cmax) was 4.7 ng/mL. It also gave a Tmax ([2]; human, in vivo, po, 50 mg, Cohort 1, Day 10, 50 mg QD SoftGel oral, fasted, multiple dose, Median, read-out: Tmax) of 2 h, a Cmax ([2]; human, in vivo, po, 50 mg, Cohort 1, Day 14, 50 mg QD SoftGel oral, fed (moderate fat meal), multiple dose, Geometric Mean, read-out: Cmax) of 1.62 ng/mL and a Tmax ([2]; human, in vivo, po, 50 mg, Cohort 1, Day 14, 50 mg QD SoftGel oral, fed (moderate fat meal), multiple dose, Geometric Mean, read-out: Tmax) of 3.63 h. The Tmax ([2]; human, in vivo, po, 50 mg, Cohort 1, Day 14, 50 mg QD SoftGel oral, fed (moderate fat meal), multiple dose, Mean, read-out: Tmax) was 3.78 h, the Cmax ([2]; human, in vivo, po, 50 mg, Cohort 1, Day 14, 50 mg QD SoftGel oral, fed (moderate fat meal), multiple dose, Median, read-out: Cmax) was 1.48 ng/mL and the AUC [3] was 33.0 ng·h/mL. The AUC(0-t) (in vivo) was 40.3 ng·h/mL, the AUC(0-t) (in vivo; Median/Average) was 55.1 ng·h/mL and the Cmax (in vivo; Cmax, Median/Average) was 37 ng/mL. It also gave a Tmax (in vivo; Tmax, Median/Average) of 1 h, a half-life (in vivo; t1/2) of 32.4 min and a half-life (in vivo; t1/2, Median/Average) of 46.2 min. The “AUC0-24, Max” value [4] was 59.0 ng·h/mL, the “AUCINF_obs, Max” value [4] was 60.1 ng·h/mL and the “AUCINF_obs, Min” value [4] was 9.21 ng·h/mL. The “Cmax, Max” value [4] was 26.8 ng/mL, the “Cmax, Min” value [4] was 1.86 ng/mL and the “HL_Lambda_z, Geometric Mean” value [4] was 2.17 h. The “HL_Lambda_z, Max” value [4] was 4.74 h, the “HL_Lambda_z, Mean” value [4] was 2.28 h and the “HL_Lambda_z, Median” value [4] was 1.98 h. For the same compound, the “HL_Lambda_z, Min” value [4] was 1.48 h, the “Tmax, Min” value [4] was 30 min and the AUC(0-t) ([4]; read-out: AUC0-24, Geometric Mean) was 21 ng·h/mL. It also gave an AUC(0-t) ([4]; read-out: AUC0-24, Mean) of 25.3 ng·h/mL, an AUC(0-t) ([4]; read-out: AUC0-24, Median) of 18.8 ng·h/mL and an AUC(0-inf) ([4]; read-out: AUCINF_obs, Geometric Mean) of 21.5 ng·h/mL. It also gave an AUC(0-inf) ([4]; read-out: AUCINF_obs, Mean) of 25.8 ng·h/mL, an AUC(0-inf) ([4]; read-out: AUCINF_obs, Median) of 19.1 ng·h/mL and a Cmax ([4]; read-out: Cmax, Geometric Mean) of 7.6 ng/mL. It also gave a Cmax ([4]; read-out: Cmax, Mean) of 10.8 ng/mL, a Cmax ([4]; read-out: Cmax, Median) of 7.06 ng/mL and a Tmax ([4]; read-out: Tmax, Geometric Mean) of 1.65 h. For the same compound, the Tmax ([4]; read-out: Tmax, Mean) was 1.98 h, the Tmax ([4]; read-out: Tmax, Median) was 1.75 h and the “lowest fully effective dose” value [5] was 10 mg.

In the case of sucrose dodecanoate, the NOAEL [6] is given as 20-30 grams/kilogram/day.
